The results in this text go back to patent US9018258B2, “Substituted 1-benzylcycloalkylcarboxylic acids and the use thereof” (Bayer Intellectual Property GmbH, priority 2010, dated 2015).

One assay concerns the target T1, GAL4-PPARδ (Homo sapiens, UniProt Q03181).
T1 construct: PPARδ (amino acids 138-442); expressed in transfected cells
T1 sequence (Q03181 138-441 limits assumed): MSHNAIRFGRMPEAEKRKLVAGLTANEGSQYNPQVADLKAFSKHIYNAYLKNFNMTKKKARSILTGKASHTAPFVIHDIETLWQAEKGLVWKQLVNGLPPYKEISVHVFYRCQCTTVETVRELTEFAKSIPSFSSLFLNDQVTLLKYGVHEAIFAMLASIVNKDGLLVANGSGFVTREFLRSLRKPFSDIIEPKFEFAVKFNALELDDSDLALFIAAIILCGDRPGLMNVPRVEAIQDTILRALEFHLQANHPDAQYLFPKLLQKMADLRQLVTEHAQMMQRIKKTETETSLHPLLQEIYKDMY
The assay is described as follows: Cellular PPAR transactivation assay, GAL4-PPARδ chimera in CHO-K1 cells. The format is cell-based. The following applies: for Emax: CHO-K1, maximum effect relative to reference compound (Example 73 of EP 1 452 521-A1 = 100%), read-out: PPARδ efficacy; for EC50: CHO-K1 cells, luciferase reporter, 6 h stimulation. A digest of the protocol:
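CHO-K1 cells stably expressing GAL4 DNA-binding domain fused to the human PPAR ligand-binding domain (α aa 167-468, γ aa 203-506, δ aa 138-442) plus a GAL4-driven firefly luciferase reporter. Compounds added in serum-free medium for 6 h; EC50 from luminescence curves. Efficacy in % of a pan-PPAR agonist reference set as 100%.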
A general note: In a reporter assay the amount or activity of a reporter protein is the signal.

A further assay concerns saphenous artery. Description: Vasorelaxant effect in vitro (phenylephrine-contracted saphenous artery rings). Also on record: species or system Rabbits. The following applies: Oryctolagus cuniculus; rabbit saphenous artery rings, phenylephrine-induced contraction. As for the experimental part: Rabbits are anaesthetized and sacrificed by intravenous injection of thiopental sodium (about 50 mg/kg) and exsanguinated. The saphenous artery is removed and divided into rings 3 mm wide. the rings are mounted singly on in each case a pair of triangular hooks open at the end and made of 0.3 mm-thick special wire (Remanium®). Each ring is placed under an initial tension in 5 ml organ baths with Krebs-Henseleit solution which is at 37° C., is gassed with carbogen and has the following composition: NaCl 119 mM; KCl 4.8 mM; CaCl2×2 H2O 1 mM; MgSO4×7 H2O 1.4 mM; KH2PO4 1.2 mM; NaHCO3 25 mM; glucose 10 mM; bovine serum albumin 0.001%. The force of contraction is detected with Statham UC2 cells, amplified and digitized via A/D converters (DAS-1802 HC, Keithley Instruments, Munich) and recorded in parallel on chart recorders. Contractions are induced by addition of phenylephrine.
After several (generally 4) control cycles, the substance to be investigated is added in each further run in increasing dosage, and the level of the contraction achieved under the influence of the test substance is compared with the level of the contraction reached in the last preceding run. The concentration necessary to reduce the contraction reached in the preceding control by 50% is calculated from this (IC50). The standard application volume is 5 μl. The proportion of DMSO in the bath solution corresponds to 0.1%.

In a further assay the target is T2, sGC (Rattus norvegicus, UniProt P20595).
T2 construct: expressed in transfected cells; host or cells: CHO reporter cell
T2 sequence (P19686 whole entry partner): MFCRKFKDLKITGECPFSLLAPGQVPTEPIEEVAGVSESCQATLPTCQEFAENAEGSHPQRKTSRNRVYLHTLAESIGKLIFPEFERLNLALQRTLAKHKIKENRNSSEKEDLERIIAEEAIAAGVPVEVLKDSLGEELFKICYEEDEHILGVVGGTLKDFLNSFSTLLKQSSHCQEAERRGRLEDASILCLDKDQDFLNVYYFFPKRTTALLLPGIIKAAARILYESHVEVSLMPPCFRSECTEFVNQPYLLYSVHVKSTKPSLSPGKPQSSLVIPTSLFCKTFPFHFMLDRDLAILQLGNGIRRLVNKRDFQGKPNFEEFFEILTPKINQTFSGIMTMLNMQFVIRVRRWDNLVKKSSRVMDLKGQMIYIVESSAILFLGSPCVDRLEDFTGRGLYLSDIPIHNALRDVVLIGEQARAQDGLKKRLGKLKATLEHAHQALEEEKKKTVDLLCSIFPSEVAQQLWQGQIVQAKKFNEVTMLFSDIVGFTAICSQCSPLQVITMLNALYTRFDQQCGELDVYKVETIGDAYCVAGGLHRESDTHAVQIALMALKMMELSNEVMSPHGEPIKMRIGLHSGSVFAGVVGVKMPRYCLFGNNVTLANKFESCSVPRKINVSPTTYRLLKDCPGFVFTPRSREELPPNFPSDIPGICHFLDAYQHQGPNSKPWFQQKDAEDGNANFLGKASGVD
T2 sequence (P20595 whole entry): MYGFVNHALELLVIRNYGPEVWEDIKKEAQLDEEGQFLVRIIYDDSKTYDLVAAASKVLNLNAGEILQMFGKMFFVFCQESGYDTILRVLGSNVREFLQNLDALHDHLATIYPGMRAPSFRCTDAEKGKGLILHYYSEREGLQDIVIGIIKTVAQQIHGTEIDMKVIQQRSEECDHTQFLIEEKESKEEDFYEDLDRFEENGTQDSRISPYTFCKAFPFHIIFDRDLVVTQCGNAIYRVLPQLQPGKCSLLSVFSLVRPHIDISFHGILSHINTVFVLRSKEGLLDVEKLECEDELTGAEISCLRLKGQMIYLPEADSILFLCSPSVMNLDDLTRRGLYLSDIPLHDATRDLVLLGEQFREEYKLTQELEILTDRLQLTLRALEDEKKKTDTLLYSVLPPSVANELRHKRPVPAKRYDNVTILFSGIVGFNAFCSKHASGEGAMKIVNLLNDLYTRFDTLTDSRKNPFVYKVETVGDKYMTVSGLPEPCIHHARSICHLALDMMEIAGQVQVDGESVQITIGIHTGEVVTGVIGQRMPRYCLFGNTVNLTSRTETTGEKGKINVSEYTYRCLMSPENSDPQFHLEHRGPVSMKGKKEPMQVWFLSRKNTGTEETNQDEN
The assay is described as follows: Action at a recombinant guanylate cyclase reporter cell line (CHO reporter cell). The format is cell-based. To be noted: CHO reporter cell in vitro. The protocol: The cellular action of the compounds according to the invention is determined at a recombinant guanylate cyclase reporter cell line, as described in F. Wunder et al., Anal. Biochem. 339, 104-112 (2005).

Consider `CCOC(c1ccc(Cl)c(NC(=O)[C@H](c2ccc(Cl)cc2)[C@@H](C)C(F)(F)F)c1)C1(C(=O)O)CC1` (single isomer, unassigned) [Example 101], for which, on GAL4-PPARδ, the Emax turned out to be 0% and the EC50 (as a rule, the midpoint of the concentration-response curve) was above 10000 nM. For the same compound, inhibition with saphenous artery was half-maximal at 685 nM (IC50). In addition, the “MEC (minimum effective concentration), sGC-activating activity in the CHO reporter cell” value (“MEC (minimum effective concentration)” below) on sGC is given as 0.3 nM.

For `[2H]C([2H])([2H])OC(c1ccc(Cl)c(NC(=O)[C@H](c2ccc(Cl)cc2)[C@@H](C)C(F)(F)F)c1)C1(C(=O)O)CC1` (single isomer, unassigned; (+)) [Example 99], at GAL4-PPARδ, the Emax turned out to be 0% and the EC50 was above 10000 nM. For the same compound, at sGC, the “MEC (minimum effective concentration)” value was 1 nM.

`C[C@H]([C@H](C(=O)Nc1cc(CC2(C(=O)O)CC2)ccc1Cl)c1ccc(Cl)c(F)c1)C(F)(F)F` [Example 30, (+)-1-(4-chloro-3-{[(2S,3R)-2-(4-chloro-3-fluoro-phenyl)-4,4,4-trifluoro-3-methylbutanoyl]amino}-benzyl)cyclopropanecarboxylic acid]: on GAL4-PPARδ, the Emax amounted to 0% and the EC50 was above 10000 nM. Further, the half-inhibitory concentration (IC50) (as a rule, the concentration at which inhibition is half-maximal) in the assay with saphenous artery came to 606 nM. Further, the “MEC (minimum effective concentration)” value at sGC was 0.3 nM.

For `C[C@H]([C@H](C(=O)Nc1cc(CC2(C(=O)O)CC2)ccc1Cl)c1ccc(Cl)cc1)C(F)(F)F` [Example 50, (+)-1-(4-Chloro-3-{[(2S,3R)-2-(4-chlorophenyl)-4,4,4-trifluoro-3-methylbutanoyl]amino}benzyl)-cyclopropanecarboxylic acid], at GAL4-PPARδ, the Emax worked out at 0% and the EC50 was above 10000 nM. In the assay with saphenous artery, this compound came in with an IC50 of 145 nM. Moreover, on sGC, the “MEC (minimum effective concentration)” value is reported as 0.4 nM.
